Measurements taken from the C3SDB collision cross section collection.

What was measured:
[1] = instrument: DT, single field, calibrated with Agilent tune mix (Agilent)
[2] = instrument: DT, stepped-field

With `CCCCCCCCCCCCCCCCC(=O)N[C@@H](CO)[C@H](O)CCCCCCCCCCCCCCC` [Cer(35:0)] the “collision cross section (N2)” value ([1]; [M+H]+) was 258.6 Å².

In the case of `CCCCCCCCCCCCC=CC[C@@H](O)[C@H](CO)NC(=O)CCCCCCCCCCCCCCCC` [Cer(35:1)], the “collision cross section (N2)” value ([1]; [M+H]+) is reported as 256.3 Å².

With `CCCCCCCCCCCCC=CC[C@@H](O)[C@H](CO)NC(=O)CC=CCCCCCCCCCCCCCC` [Cer(36:2)] the “collision cross section (N2)” value ([1]; [M+H]+) was 255.4 Å².

With `CCCCCCCCCCCCC=CC[C@@H](O)[C@H](CO)NC(=O)CCCCCCCCCCCCCCCCCCC` [Cer(38:1)] the “collision cross section (N2)” value ([1]; [M+HCOO]-) was 263.4 Å², the “collision cross section (N2)” value ([1]; [M+H]+) was 267.3 Å² and the “collision cross section (N2)” value ([1]; [M+Na]+) was 273.1 Å².

With `CCCCCCCCCCCCC=CC[C@@H](O)[C@H](CO)NC(=O)CCCCCCCCCCCCCCCCCCCC` [Cer(39:1)] the “collision cross section (N2)” value ([1]; [M+H]+) was 269 Å².

For `CCCCCCCCCCCCC=CC[C@@H](O)[C@H](CO)NC(=O)CCCCCCCCCCCCCCCCCCCCC` [Cer(40:1)], the “collision cross section (N2)” value ([1]; [M+HCOO]-) was 269.4 Å² and the “collision cross section (N2)” value ([1]; [M+H]+) was 272.3 Å².

In the case of `CCCCCCCCCCCCC=CC[C@@H](O)[C@H](CO)NC(=O)CCCCCCCCCCCCCCCCCCCCCC` [Cer(41:1)], the “collision cross section (N2)” value ([1]; [M+H]+) is reported as 275.6 Å² and the “collision cross section (N2)” value ([1]; [M+Na]+) is reported as 281.6 Å².

In the case of `CCCCCCCCCCCCC=CC[C@@H](O)[C@H](CO)NC(=O)CCCCCCCCCCCCCCCCCCCCCCC` [Cer(42:1)], the “collision cross section (N2)” value ([1]; [M+H]+) is reported as 279.3 Å² and the “collision cross section (N2)” value ([1]; [M-H]-) is reported as 267.7 Å².

In the case of `CCCCCCCCCCCCC=CC[C@@H](O)[C@H](CO)NC(=O)CC=CCCCCCCCCCCCCCCCCCCCC` [Cer(42:2)], the “collision cross section (N2)” value ([1]; [M+HCOO]-) is reported as 274.4 Å², the “collision cross section (N2)” value ([1]; [M+Na]+) is reported as 278.8 Å² and the “collision cross section (N2)” value ([1]; [M-H]-) is reported as 266.1 Å².

In the case of `CCCCCCCCCCCCC=CC[C@@H](O)[C@H](CO[C@@H]1O[C@H](CO)[C@@H](O)C(O)C1O)NC(=O)CCCCCCCCCCCCCCCCCCCCCCCCC` (stereo partly drawn) [GlcCer(44:1)], the “collision cross section (N2)” value ([1]; [M+H]+) is reported as 307.2 Å² and the “collision cross section (N2)” value ([1]; [M+Na]+) is reported as 308.7 Å².

In the case of `CCCCCC/C=C\CCCCCCCCC(=O)OC[C@@H](O)COP(=O)([O-])OCC[N+](C)(C)C` [LPC(17:1)], the “collision cross section (N2)” value ([1]; [M+H]+) is reported as 228.4 Å².

For `CCCCCCCCCCCCCCCCCC(=O)OC[C@@H](O)COP(=O)(O)OC[C@H](N)C(=O)O` [LPS(18:0)], the “collision cross section (N2)” value ([1]; [M+H]+) was 228.3 Å² and the “collision cross section (N2)” value ([1]; [M+Na]+) was 232.1 Å².

With `CCCCCC/C=C\CCCCCCCC/C=C\OC[C@H](COP(=O)([O-])OCC[N+](C)(C)C)OC(=O)CCCCCCC/C=C\CCCCCC` [PC(p34:2)] the “collision cross section (N2)” value ([1]; [M+H]+) was 283.3 Å².

With `CCCCC/C=C\C/C=C\CCCCCCCC(=O)O[C@H](COC(=O)CCCCCCCCC/C=C\CCCCCCCC)COP(=O)(O)OC[C@@H](O)CO` [PG(38:3)] the “collision cross section (N2)” value ([1]; [M-H]-) was 279.2 Å².

In the case of `CCCCCC/C=C\CCCCCCCC(=O)OC[C@H](COP(=O)(O)O[C@H]1C(O)C(O)C(O)[C@@H](O)C1O)OC(=O)CCCCCCCCC/C=C\CCCCCCCCCC` (stereo partly drawn) [PI(38:2)], the “collision cross section (N2)” value ([1]; [M+H]+) is reported as 305.1 Å², the “collision cross section (N2)” value ([1]; [M+NH4]+) is reported as 306 Å² and the “collision cross section (N2)” value ([1]; [M+Na]+) is reported as 303.2 Å². For the same compound, the “collision cross section (N2)” value ([1]; [M-H]-) was 295.2 Å².

With `CCCCC/C=C\C/C=C\C/C=C\CCCCCCC(=O)O[C@H](COC(=O)CCCCCCCCCCCCCCCCCC)COP(=O)(O)O[C@H]1C(O)C(O)C(O)[C@@H](O)C1O` (stereo partly drawn) [PI(39:3)] the “collision cross section (N2)” value ([1]; [M-H]-) was 296.5 Å².

For `CCCCC/C=C\C/C=C\C/C=C\C/C=C\CCCCCC(=O)O[C@H](COC(=O)CCCCCCCCCCCCCCCC)COP(=O)(O)O[C@H]1C(O)C(O)C(O)[C@@H](O)C1O` (stereo partly drawn) [PI(39:4)], the “collision cross section (N2)” value ([1]; [M-H]-) was 295 Å².

With `CC/C=C\C/C=C\C/C=C\C/C=C\C/C=C\C/C=C\CCC(=O)OC[C@H](COP(=O)(O)OC[C@H](N)C(=O)O)OC(=O)CCCCCCCCCCCCCCCCCC` [PS(41:06)] the “collision cross section (N2)” value ([2]; [M+2Na-H]+) was 296.18 Å².

For `CCCCC/C=C\C/C=C\C/C=C\C/C=C\CCCCCC(=O)O[C@H](COC(=O)CCCCCCCCC/C=C\C/C=C\CCCCC)COP(=O)(O)OC[C@H](N)C(=O)O` [PS(42:06)], the “collision cross section (N2)” value ([2]; [M+2Na-H]+) was 297.48 Å².

For `CCCCC/C=C\C/C=C\C/C=C\C/C=C\CCCCCC(=O)O[C@H](COC(=O)CCC/C=C\C/C=C\C/C=C\C/C=C\CCCCC)COP(=O)(O)OC[C@H](N)C(=O)O` [PS(42:08)], the “collision cross section (N2)” value ([2]; [M+2Na-H]+) was 295.25 Å² and the “collision cross section (N2)” value ([2]; [M-H]-) was 291.98 Å².

With `CC/C=C\C/C=C\C/C=C\C/C=C\C/C=C\CCCC(=O)OC[C@H](COP(=O)(O)OC[C@H](N)C(=O)O)OC(=O)CCCCC/C=C\C/C=C\C/C=C\C/C=C\CCCCC` [PS(42:09)] the “collision cross section (N2)” value ([2]; [M+2Na-H]+) was 292.63 Å², the “collision cross section (N2)” value ([2]; [M+K]+) was 294.57 Å² and the “collision cross section (N2)” value ([2]; [M-H]-) was 290.63 Å².

With `CCCCCCCCCCCCCCC[C@@H](O)[C@H](COP(=O)([O-])OCC[N+](C)(C)C)NC(=O)CCCCCCCCCCCCC` [SM(32:0)] the “collision cross section (N2)” value ([1]; [M+H]+) was 278.5 Å².

For `CCCCCCCCCCCCC=CC[C@@H](O)[C@H](COP(=O)([O-])OCC[N+](C)(C)C)NC(=O)CCCCCCCCCCCCCCCC` [SM(35:01)], the “collision cross section (N2)” value ([2]; [M+Na]+) was 280.61 Å².

In the case of `CCCCCCCCCCCCC=CC[C@@H](O)[C@H](COP(=O)([O-])OCC[N+](C)(C)C)NC(=O)CCCCCCCCCCCCCCCCCC` [SM(37:01)], the “collision cross section (N2)” value ([2]; [M+H]+) is reported as 288.67 Å² and the “collision cross section (N2)” value ([2]; [M+Na]+) is reported as 285.35 Å².

With `CCCCCCCCCCCCCCCCCCCC(=O)N[C@@H](COP(=O)([O-])OCC[N+](C)(C)C)[C@H](O)CCCCCCCCCCCCCCC` [SM(38:00)] the “collision cross section (N2)” value ([2]; [M+2Na-H]+) was 294.68 Å².

With `CCCCCCCCCCCCC=CC[C@@H](O)[C@H](COP(=O)([O-])OCC[N+](C)(C)C)NC(=O)CCCCCCCCCCCCCCCCCCC` [SM(38:01)] the “collision cross section (N2)” value ([2]; [M+Cl]-) was 294.7 Å², the “collision cross section (N2)” value ([2]; [M+HCOO]-) was 296.3 Å² and the “collision cross section (N2)” value ([2]; [M+H]+) was 292.26 Å². The “collision cross section (N2)” value ([2]; [M+Na]+) was 292.18 Å².

With `CCCCCCCCCCCCC=CC[C@@H](O)[C@H](COP(=O)([O-])OCC[N+](C)(C)C)NC(=O)CCCCCCCCCCCCCCCCCCCC` [SM(39:01)] the “collision cross section (N2)” value ([2]; [M+H]+) was 295.85 Å² and the “collision cross section (N2)” value ([2]; [M+Na]+) was 294.58 Å².

For `CCCCCCCCCCCCC=CC[C@@H](O)[C@H](COP(=O)([O-])OCC[N+](C)(C)C)NC(=O)CCCCCCCCCCCCCCCCCCCCCC` [SM(41:01)], the “collision cross section (N2)” value ([2]; [M+H]+) was 301.14 Å² and the “collision cross section (N2)” value ([2]; [M+Na]+) was 299.31 Å².

With `CCCCCCCCCCCCC=CC[C@@H](O)[C@H](COP(=O)([O-])OCC[N+](C)(C)C)NC(=O)CCCCCCCCCCCCCCCCCCCCCCC` [SM(42:01)] the “collision cross section (N2)” value ([2]; [M+Cl]-) was 305.77 Å², the “collision cross section (N2)” value ([2]; [M+HCOO]-) was 306.96 Å² and the “collision cross section (N2)” value ([2]; [M+H]+) was 303.17 Å². For the same compound, the “collision cross section (N2)” value ([2]; [M+Na]+) was 302.6 Å².

For `CCCCCCCCCCCCC=CC[C@@H](O)[C@H](COP(=O)([O-])OCC[N+](C)(C)C)NC(=O)CC=CCCCCCCCCCCCCCCCCCCCC` [SM(42:02)], the “collision cross section (N2)” value ([2]; [M+Cl]-) was 304.71 Å², the “collision cross section (N2)” value ([2]; [M+HCOO]-) was 305.63 Å² and the “collision cross section (N2)” value ([2]; [M+H]+) was 301.43 Å². For the same compound, the “collision cross section (N2)” value ([2]; [M+Na-H2O]+) was 301.19 Å² and the “collision cross section (N2)” value ([2]; [M+Na]+) was 300.53 Å².

With `CCCCCCCCCCCCC=CC[C@@H](O)[C@H](COP(=O)([O-])OCC[N+](C)(C)C)NC(=O)CC=CCC=CCC=CCCCCCCCCCCCCCC` [SM(42:04)] the “collision cross section (N2)” value ([2]; [M+H]+) was 297.81 Å².

In the case of `CCCCCCCCCCCCC=CC[C@@H](O)[C@H](COP(=O)([O-])OCC[N+](C)(C)C)NC(=O)CCCCCCCCCCCCCCCCCCCCCCCCC` [SM(44:01)], the “collision cross section (N2)” value ([2]; [M+H]+) is reported as 309.76 Å² and the “collision cross section (N2)” value ([2]; [M+Na]+) is reported as 307.86 Å².

For `CCCCCCCCCCCCC=CC[C@@H](O)[C@H](COP(=O)([O-])OCC[N+](C)(C)C)NC(=O)CC=CCC=CCCCCCCCCCCCCCCCCCCC` [SM(44:03)], the “collision cross section (N2)” value ([2]; [M+Na]+) was 304.66 Å².

For `CCCCC/C=C\CCCCCCCC(=O)OC[C@H](COC(=O)CCCCCCCCCCCCCCCCCC)OC(=O)CCCCCCCCCCCCCCCCCC` [TG(53:1)], the “collision cross section (N2)” value ([1]; [M+NH4]+) was 325 Å².

In the case of `CCCCC/C=C\C/C=C\C/C=C\C/C=C\CCCCCC(=O)OC[C@@H](COC(=O)CCCCCCCCCCCC)OC(=O)CCCCCCC/C=C\CCCCCCCCC` [TG(54:5)], the “collision cross section (N2)” value ([1]; [M+NH4]+) is reported as 322.1 Å².

With `CCCCCCCCCC/C=C\CCCCCCCCCC(=O)OC[C@@H](COC(=O)CCCCCCCCCCC)OC(=O)CCCCCCCCCCCCCCCCCCCCC` [TG(56:1)] the “collision cross section (N2)” value ([1]; [M+NH4]+) was 333.6 Å².

For `CC/C=C\C/C=C\C/C=C\C/C=C\C/C=C\CCCCCC(=O)OC[C@@H](COC(=O)CCCCCCC/C=C\C/C=C\CCCCC)OC(=O)CCCCCC/C=C\C/C=C\C/C=C\CCCCC` [TG(60:10)], the “collision cross section (N2)” value ([1]; [M+NH4]+) was 334.1 Å².

With `CCCCCCCC/C=C\CCCCCCCC(=O)OC[C@H](COC(=O)CCCCCCCCC/C=C\CCCCCCCCCC)OC(=O)CCCCCCCCC/C=C\CCCCCCCCCC` [TG(62:3)] the “collision cross section (N2)” value ([1]; [M+NH4]+) was 346.8 Å².

For `CCCCC/C=C\C/C=C\C/C=C\C/C=C\CCCCCC(=O)OC[C@@H](COC(=O)CCCCCCC/C=C\CCCCCCCC)OC(=O)CCCCCCCCCCC/C=C\C/C=C\CCCCC` [TG(62:7)], the “collision cross section (N2)” value ([1]; [M+NH4]+) was 343.6 Å².
